Usually EC50 stands for the concentration needed to bring the measured effect to its halfway point. A word on the Ki: it is the equilibrium dissociation constant of an inhibitor or competing ligand from its target.

From ChEMBL document CHEMBL4673391, “Multiresidue Tetrapeptide Substitutions Yield a 140-fold Selective Melanocortin-3 over Melanocortin-4 Receptor Agonist” (ACS Med Chem Lett, 2021) come the findings set out here.

The species entered for assay [1] is Mus musculus. The assay is described as follows: Selectivity index, ratio of Ki for mouse melanocortin receptor 4 expressed in HEK293 cells to EC50 for mouse melanocortin receptor 3 expressed in HEK293 cells assessed as stimulation of cAMP accumulation incubated for 2 hrs by cAMP Alpha-screen assay. It counts as cell-based. Background: Changes in cAMP serve as a functional read-out for many G protein-coupled receptors.

The target in assay [2] is Melanocortin receptor 4 (Mus musculus) (UniProt P56450). Nature of the assay: Agonist activity at mouse melanocortin receptor 4 expressed in HEK293 cells assessed as stimulation of cAMP accumulation at 100 uM incubated for 2 hrs by cAMP Alpha-screen assay relative to control. It counts as functional, cell-based.
Assay [3] concerns the target Melanocyte-stimulating hormone receptor (Mus musculus, UniProt Q01727). The assay is described as follows: Agonist activity at mouse melanocortin receptor 1 expressed in HEK293 cells assessed as stimulation of cAMP accumulation incubated for 2 hrs by cAMP Alpha-screen assay. The format is functional, cell-based.
For the next assay, the target named is Melanocortin receptor 3 (Mus musculus, UniProt P33033). Nature of the assay: Agonist activity at mouse melanocortin receptor 3 expressed in HEK293 cells assessed as stimulation of cAMP accumulation incubated for 2 hrs by cAMP Alpha-screen assay. It counts as functional, cell-based.
The target of assay [4] is T1, Melanocortin receptor 4 (Mus musculus, UniProt P56450). Nature of the assay: Antagonist activity at mouse melanocortin receptor 4 expressed in HEK293 cells assessed as inhibition of NDP-MSH-induced cAMP accumulation incubated for 2 hrs by cAMP Alpha-screen assay based Schild analysis. The format is functional, cell-based. Particulars: for Kb: read-out: pA2 (converted).

The target in another assay is Melanocortin receptor 5 (Mus musculus, UniProt P41149). Nature of the assay: Agonist activity at mouse melanocortin receptor 5 expressed in HEK293 cells assessed as stimulation of cAMP accumulation incubated for 2 hrs by cAMP Alpha-screen assay. The format is functional, cell-based.
In assay [5] the target is T1, Melanocortin receptor 4. Nature of the assay: Agonist activity at mouse melanocortin receptor 4 expressed in HEK293 cells assessed as stimulation of cAMP accumulation incubated for 2 hrs by cAMP Alpha-screen assay. It counts as functional, cell-based.
The species entered for assay [6] is Mus musculus. The assay is described as follows: Selectivity index, ratio of EC50 for mouse melanocortin receptor 4 expressed in HEK293 cells to EC50 for mouse melanocortin receptor 3 expressed in HEK293 cells assessed as stimulation of cAMP accumulation incubated for 2 hrs by cAMP Alpha-screen assay. It counts as cell-based.
The target of assay [7] is Melanocyte-stimulating hormone receptor (Mus musculus) (UniProt Q01727). Nature of the assay: Partial agonist activity at mouse melanocortin receptor 1 expressed in HEK293 cells assessed as stimulation of cAMP accumulation incubated for 2 hrs by cAMP Alpha-screen assay relative to NDP-MSH. It counts as functional, cell-based. The conditions noted are these: filed as partial agonist.
Chain of Melanocyte-stimulating hormone receptor (Mus musculus) (Q01727 whole entry, looked up): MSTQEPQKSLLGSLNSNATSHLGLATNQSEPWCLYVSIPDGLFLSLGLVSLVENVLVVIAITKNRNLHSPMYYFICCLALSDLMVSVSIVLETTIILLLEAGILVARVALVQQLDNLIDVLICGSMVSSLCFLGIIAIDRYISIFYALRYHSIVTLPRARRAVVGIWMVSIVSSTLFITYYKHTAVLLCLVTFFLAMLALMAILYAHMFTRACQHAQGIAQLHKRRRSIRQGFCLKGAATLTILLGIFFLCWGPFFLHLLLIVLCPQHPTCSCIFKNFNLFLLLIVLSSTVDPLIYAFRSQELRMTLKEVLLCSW

Chain of Melanocortin receptor 3 (P33033 whole entry): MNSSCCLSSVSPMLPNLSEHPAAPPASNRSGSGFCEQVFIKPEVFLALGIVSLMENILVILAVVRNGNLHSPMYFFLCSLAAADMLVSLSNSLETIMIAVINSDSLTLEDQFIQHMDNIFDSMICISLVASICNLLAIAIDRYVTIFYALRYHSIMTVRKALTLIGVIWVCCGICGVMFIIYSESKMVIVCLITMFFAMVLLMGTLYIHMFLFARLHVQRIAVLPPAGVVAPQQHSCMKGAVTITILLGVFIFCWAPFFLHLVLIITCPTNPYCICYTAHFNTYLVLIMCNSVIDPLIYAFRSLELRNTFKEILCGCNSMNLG
Chain of Melanocortin receptor 5 (P41149 whole entry): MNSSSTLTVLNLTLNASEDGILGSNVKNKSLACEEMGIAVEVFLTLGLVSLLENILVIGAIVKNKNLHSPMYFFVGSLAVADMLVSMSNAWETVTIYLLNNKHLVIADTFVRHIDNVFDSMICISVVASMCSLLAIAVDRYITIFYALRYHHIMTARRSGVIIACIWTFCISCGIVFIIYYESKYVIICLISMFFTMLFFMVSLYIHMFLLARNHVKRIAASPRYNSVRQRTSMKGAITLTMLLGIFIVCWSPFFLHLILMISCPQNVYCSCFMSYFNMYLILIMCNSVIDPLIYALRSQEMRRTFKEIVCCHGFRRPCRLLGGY
Chain of Melanocortin receptor 4 (Mus musculus) (P56450 whole entry): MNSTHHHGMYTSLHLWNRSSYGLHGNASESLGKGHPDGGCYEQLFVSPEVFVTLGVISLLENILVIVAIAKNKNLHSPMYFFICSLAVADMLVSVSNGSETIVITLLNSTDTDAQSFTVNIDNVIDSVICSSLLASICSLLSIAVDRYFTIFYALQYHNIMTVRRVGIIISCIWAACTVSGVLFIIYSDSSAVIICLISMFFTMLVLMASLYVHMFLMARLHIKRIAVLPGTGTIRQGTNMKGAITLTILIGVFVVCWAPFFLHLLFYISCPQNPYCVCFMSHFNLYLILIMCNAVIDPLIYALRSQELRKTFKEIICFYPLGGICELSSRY
T1 sequence (P56450 whole entry): as above
Chain of Melanocyte-stimulating hormone receptor (Q01727 whole entry): as the sequence (Q01727 whole entry, looked up) above

For the molecule `CC(=O)N[C@@H](CCCNC(=N)N)C(=O)N[C@@H](CCC(N)=O)C(=O)N[C@H](Cc1ccc(-c2ccccc2)cc1)C(=O)N1Cc2ccccc2C[C@H]1C(N)=O`, the Selectivity ratio in the assay filed under Mus musculus [1] amounted to 30. For the same molecule, in assay [2] (filed as agonist), the Activity was 40%. Further, the EC50 was found to be 60 nM in assay [3], 66 nM at Melanocortin receptor 3 and 16.4 nM on Melanocortin receptor 5. Moreover, the Ki at Melanocortin receptor 4 [4] was found to be 2000 nM. Moreover, the Kb at Melanocortin receptor 4 [4] was 2000 nM.

As for `CC(=O)N[C@H](C(=O)N[C@@H](CCCNC(=N)N)C(=O)N[C@H](Cc1ccc(-c2ccccc2)cc1)C(=O)N1Cc2ccccc2C[C@H]1C(N)=O)C(C)C`, in the assay listed under Mus musculus [1], the Selectivity ratio amounted to 10. Moreover, the Activity in assay [2] was determined as 10%. Besides, the EC50 in [3] is 1.1 nM; on Melanocortin receptor 3 it was 40 nM; at Melanocortin receptor 5, 18 nM. Further, the Ki at Melanocortin receptor 4 [4] came out at 400 nM. Besides, the Kb at Melanocortin receptor 4 [4] was 398 nM.

Regarding `CC(=O)N[C@H](C(=O)N[C@@H](CCCNC(=N)N)C(=O)N[C@H](Cc1ccc(-c2ccccc2)cc1)C(=O)N1Cc2ccccc2C[C@@H]1C(N)=O)C(C)C`, the Selectivity ratio in the assay listed under Mus musculus [1] was determined as 7. Also, the Activity in [2] was found to be 35%. Also, the EC50 in assay [3] stood at 1.7 nM; on Melanocortin receptor 3 it was 36 nM; on Melanocortin receptor 5 it was 25 nM. Moreover, the Ki at Melanocortin receptor 4 [4] turned out to be 250 nM. Moreover, the Kb at Melanocortin receptor 4 [4] is 251 nM.

Consider `CC(=O)N[C@@H](CCCNC(=N)N)C(=O)N[C@@H](CCC(N)=O)C(=O)N[C@H](Cc1ccc(-c2ccccc2)cc1)C(=O)N1Cc2ccccc2C[C@@H]1C(N)=O`, for which the EC50 on Melanocortin receptor 4 [5] came out at 400 nM; in assay [3], 11 nM; at Melanocortin receptor 3, 14 nM; on Melanocortin receptor 5, 5.6 nM. Besides, the Ratio EC50 in the assay filed under Mus musculus [6] was 28.

For the molecule `CC(=O)N[C@@H](Cc1c[nH]cn1)C(=O)N[C@@H](CCC(N)=O)C(=O)N[C@H](Cc1ccc(-c2ccccc2)cc1)C(=O)N1Cc2ccccc2C[C@H]1C(N)=O`, the Selectivity ratio in the assay filed under Mus musculus [1] was found to be 65. Further, in assay [2], the Activity was 20%. Further, the values for the half-maximal effective concentration (EC50) (in assay [3]; on Melanocortin receptor 3; at Melanocortin receptor 5) were 160 nM, 150 nM and 31 nM, respectively. For the same molecule, the Ki on Melanocortin receptor 4 [4] turned out to be 10000 nM. In addition, on Melanocortin receptor 4 [4], the Kb is 10000 nM.

On to `CC(=O)N[C@@H](Cc1c[nH]cn1)C(=O)N[C@@H](CCCNC(=N)N)C(=O)N[C@H](Cc1ccc(-c2ccccc2)cc1)C(=O)N1Cc2ccccc2C[C@H]1C(N)=O`, for which the Selectivity ratio in the assay filed under Mus musculus [1] is 14. Also, in assay [2], the Activity came to 35%. For the same molecule, the EC50 in assay [3] came to 0.5 nM; on Melanocortin receptor 3, 22 nM; at Melanocortin receptor 5, 9 nM. For the same molecule, at Melanocortin receptor 4 [4], the Ki was found to be 320 nM. For the same molecule, the Kb at Melanocortin receptor 4 [4] was 316 nM.

Turning to `CC(=O)N[C@@H](Cc1c[nH]cn1)C(=O)N[C@@H](CCC(N)=O)C(=O)N[C@H](Cc1ccc(-c2ccccc2)cc1)C(=O)N1Cc2ccccc2C[C@@H]1C(N)=O`, in the assay listed under Mus musculus [1], the Selectivity ratio is 36. Also, in assay [2] (filed as agonist), the Activity came out at 50%. Also, the EC50 amounted to 123 nM in assay [3], 110 nM at Melanocortin receptor 3 and 39 nM at Melanocortin receptor 5. For the same molecule, the Ki at Melanocortin receptor 4 [4] amounted to 3980 nM. Also, at Melanocortin receptor 4 [4], the Kb is 3980 nM.

As to `CC(=O)N[C@@H](Cc1c[nH]cn1)C(=O)N[C@@H](CCCNC(=N)N)C(=O)N[C@H](Cc1ccc(-c2ccccc2)cc1)C(=O)N1Cc2ccccc2C[C@@H]1C(N)=O`, the Selectivity ratio in the assay filed under Mus musculus [1] amounted to 8. Further, the Activity in assay [2] was 35%. Besides, the EC50 in assay [3] amounted to 0.9 nM; on Melanocortin receptor 3, 39 nM; on Melanocortin receptor 5 it was 26 nM. Besides, the Ki on Melanocortin receptor 4 [4] came out at 320 nM. In addition, at Melanocortin receptor 4 [4], the Kb was 316 nM.

For `CC(=O)N[C@H](C(=O)N[C@@H](CCC(N)=O)C(=O)N[C@H](Cc1ccc(-c2ccccc2)cc1)C(=O)N1Cc2ccccc2C[C@H]1C(N)=O)C(C)C`, the Selectivity ratio in the assay listed under Mus musculus [1] is over 90. The Activity in [2] worked out at 20%; in [7], 85%. Moreover, the EC50 in assay [3] is 80 nM; at Melanocortin receptor 3, 110 nM; at Melanocortin receptor 5, 31 nM. Also, the Ki on Melanocortin receptor 4 [4] is over 10000 nM. Also, on Melanocortin receptor 4 [4], the Kb was over 10000 nM.

Consider `CC(=O)N[C@H](C(=O)N[C@@H](CCC(N)=O)C(=O)N[C@H](Cc1ccc(-c2ccccc2)cc1)C(=O)N1Cc2ccccc2C[C@@H]1C(N)=O)C(C)C`, for which the Selectivity ratio in the assay listed under Mus musculus [1] was over 140. The values for the Activity in assay [2] (filed as agonist) and in [7] were 40% and 75%, respectively. Moreover, the EC50 stood at 150 nM in [3], 70 nM at Melanocortin receptor 3 and 36 nM on Melanocortin receptor 5. In addition, the Ki on Melanocortin receptor 4 [4] was over 10000 nM. The Kb at Melanocortin receptor 4 [4] was over 10000 nM.

On to `CC(=O)N[C@@H](CCCNC(=N)N)C(=O)N[C@@H](CCCNC(=N)N)C(=O)N[C@H](Cc1ccc(-c2ccccc2)cc1)C(=O)N1Cc2ccccc2C[C@H]1C(N)=O`, for which the Selectivity ratio in the assay listed under Mus musculus [1] came to 11. The Activity in [2] stood at 35%. Further, the EC50 in [3] was determined as 0.23 nM; on Melanocortin receptor 3, 11 nM; at Melanocortin receptor 5, 3.5 nM. Moreover, at Melanocortin receptor 4 [4], the Ki was 125 nM. Moreover, on Melanocortin receptor 4 [4], the Kb is 126 nM.

As to `CC(=O)N[C@@H](CCCNC(=N)N)C(=O)N[C@@H](CCCNC(=N)N)C(=O)N[C@H](Cc1ccc(-c2ccccc2)cc1)C(=O)N1Cc2ccccc2C[C@@H]1C(N)=O`, the Selectivity ratio in the assay listed under Mus musculus [1] worked out at 11. Further, the Activity in assay [2] (filed as agonist) is 40%. Besides, the EC50 in assay [3] was 0.6 nM; on Melanocortin receptor 3, 14 nM; on Melanocortin receptor 5 it was 5.7 nM. Also, at Melanocortin receptor 4 [4], the Ki came out at 160 nM. Besides, the Kb on Melanocortin receptor 4 [4] is 158 nM.
